Data from patent US20240167001A1, “THREE-DIMENSIONAL TUMOR MODEL OF GLIOBLASTOMA AND BRAIN METASTASIS, METHODS OF MANUFACTURING SAME AND USES THEREOF” (Ramot at Tel-Aviv University Ltd., priority 2021, published 2024).

How the values were obtained:
PD-GB4 cells [1] = assay: 2D proliferation assay with SELPi (IncuCyte); assay type: cell-based, human; settings: 0.5 μM SELPi
Procedure: (§1) For growth curve evaluation, U-87MG and T98G human GB cells dormant and fast-growing tumor cells (29) (25,000 cells/well) were seeded onto 24-well plates in complete DMEM and incubated for 72 h (37° C.; 5% CO2). For the comparison of […] cell types growth curves in 2D culture, 10,000 cells/well were cultured in DMEM following a daily incubation with PrestoBlue® reagent for 4 h. For proliferation evaluation in the presence of SELPi, U-87MG and T98G human GB cells generating dormant and fast-growing tumors, or PD-GB4 cells (25,000 cells/well) were plated onto 24-well plate in complete DMEM and incubated for 24 h (37° C.; 5% CO2) to allow cell attachment. Cells were then treated with either 0.5 μM SELPi or with DMSO vehicle at corresponding % v/v of 0.2% v/v, prepared in medium mixture at 1:1:1:1:1 ratio of DMEM, astrocytes medium, microglia medium, pericytes medium and Endo-Gro medium, for 30 min. All wells were washed twice with PBS and incubated further with fresh medium mixture. Cell proliferation was monitored by IncuCyte® Zoom Live cell analysis system (Essen Bioscience), while the first images were taken right before the treatment. Each group was assayed in triplicates and the experiment was repeated in three independent times. Proliferation of cells was normalized to time 0 and presented as percent (%) of cell confluence.

T98G-F cells [2] = assay: 2D proliferation assay with SELPi (IncuCyte); assay type: cell-based, human; settings: 0.5 μM SELPi
Procedure: as §1

U-87MG-F cells [3] = assay: 2D proliferation assay with SELPi (IncuCyte); assay type: cell-based, human; settings: 0.5 μM SELPi
Procedure: as §1

PD-GB4 cells [4] = assay: Proliferation in fibrin 3D-bio-ink in the presence of SELPi (ImageJ, RLU); assay type: cell-based, human; settings: 0.5 M [sic] KF38789, fibrin 3D-bio-ink; p=0.0001
Procedure: (§2) PD-GB4 iRFP-labeled were casted into 96 glass bottom well plates (Cellvis, California, USA) in a core tumor at a density of 1×10^7 cells/ml and surrounded with 1×10^6 cells/ml un-labeled hAstro. Experiments were done in a medium mixture at 1:1:1 ratio of DMEM, astrocytes medium and microglia medium. For invasion estimation of dormant versus fast-growing cell types, mCherry-labeled U-87MG and T98-G human GB cells (2×10^6 cells/ml) were plated in a glass bottom 96-well plates in the core of fibrin 3D-bio-ink. The surrounding fibrin 3D-bio-ink was an empty, clear fibrin 3D-bio-ink. Experiments were done in a medium mixture at 1:1:1:1:1 ratio of DMEM, astrocytes medium, microglia medium, pericytes medium and Endo-Gro medium. Cell invasion was monitored for 2-5 weeks using EVOS FL Auto cell imaging system and quantified by ImageJ software, presented here as relative light units (RLU). Cells invasion was normalized by comparing the size of the cell core at day 1 (polygon drawing shape) up to day 14. 2 weeks. Each group contained 6-12 samples and the experiments were repeated in three independent times. For the evaluation of proliferation in the presence of P-selectin inhibitor (SELPi), mCherry-labeled U-87MG-F and T98G-F cells generating fast-growing tumors or iRFP-labeled PD-GB4 cells (4×10^6 cells/ml) were seeded in a glass bottom 96-well plate in the core of fibrin 3D-bio-ink. The surrounding fibrin 3D-bio-ink was an empty, clear fibrin 3D-bio-ink. Cells were then treated with […] KF38789 which is a selective inhibitor of P-selectin (SELPi) which were chosen to serve as a small molecule drug. […] P-selectin (SELP) functions as a cell adhesion molecule on the surfaces of cells which binds carbohydrates (18). It is also involved in tumor cell binding and promote their invasion by supporting a permissive metastatic microenvironment and SELP is highly expressed in GB (28). […] Proliferation was quantified during time with ImageJ software by RLU. […]

T98G-F cells [5] = assay: as above; assay type: cell-based, human; settings: 0.5 M [sic] KF38789, fibrin 3D-bio-ink; p=0.00003
Procedure: as §2

U-87MG-F cells [6] = assay: as above; assay type: cell-based, human; settings: 0.5 M [sic] KF38789, fibrin 3D-bio-ink; p=4×10^−6
Procedure: as §2

P-selectin (SELP) = molecular target: T1, P-selectin (SELP) (Homo sapiens, UniProt P16109); settings: lymphocytes; read-out: IC50 for inhibition of SELP binding in lymphocytes; cited from earlier work
T1 sequence (P16109 42-830): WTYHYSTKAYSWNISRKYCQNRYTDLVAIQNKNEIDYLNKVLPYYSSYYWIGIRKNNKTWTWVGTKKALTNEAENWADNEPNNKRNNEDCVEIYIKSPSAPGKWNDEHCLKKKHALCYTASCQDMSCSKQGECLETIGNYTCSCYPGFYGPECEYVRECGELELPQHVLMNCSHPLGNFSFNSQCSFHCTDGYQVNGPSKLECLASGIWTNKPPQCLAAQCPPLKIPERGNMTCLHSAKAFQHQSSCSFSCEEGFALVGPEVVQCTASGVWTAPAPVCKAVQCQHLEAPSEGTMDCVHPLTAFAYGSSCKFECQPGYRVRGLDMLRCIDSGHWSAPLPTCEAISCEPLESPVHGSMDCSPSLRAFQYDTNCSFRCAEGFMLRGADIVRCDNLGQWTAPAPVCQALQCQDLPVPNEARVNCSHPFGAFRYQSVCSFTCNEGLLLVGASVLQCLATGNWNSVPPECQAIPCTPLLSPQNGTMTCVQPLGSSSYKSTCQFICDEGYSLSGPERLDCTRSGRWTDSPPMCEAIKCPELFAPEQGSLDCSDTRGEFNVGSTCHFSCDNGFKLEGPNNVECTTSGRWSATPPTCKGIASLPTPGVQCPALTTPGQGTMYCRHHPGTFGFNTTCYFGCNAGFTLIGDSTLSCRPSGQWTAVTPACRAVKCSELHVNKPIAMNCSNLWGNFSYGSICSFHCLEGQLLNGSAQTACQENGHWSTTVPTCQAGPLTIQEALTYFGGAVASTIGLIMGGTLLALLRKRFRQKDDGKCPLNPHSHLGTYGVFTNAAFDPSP

patient-derived GB cells = assay: TMZ resistance evaluation, patient-derived GB cells in 2D culture; assay type: cell-based; settings: Homo sapiens, 72 h, 3 patient-derived GB cells, 3 days, all three cell types, read-out: IC50 of TMZ, patient-derived cells grown in 2D culture
Procedure: The resistance of patient-derived cells to TMZ (LIXIN, China) was assessed in fibrin 3D-bio-ink and in 2D culture. Patient-derived cells were seeded in fibrin 3D-bio-ink at 1×10^7 cells/ml density to match resemble a very dens GB tissue, in different TMZ concentrations (2000 μM -0.01 μM) for 7 days. For the 2D culture TMZ resistance evaluation 20,000-40,000 cells/well were seeded in 24 well plate in fresh DMEM. We replaced the media to media with different TMZ concentrations (10 μM -0.01 μM) for 3 days. Then, the 3D-bio-ink samples were placed in 500 μl PrestoBlue in 24 well plate and incubated at 37° C. for 3 h.

Row | SMILES | Effect on proliferation of PD-GB4 in 2D culture (PD-GB4 cells [1]) | Effect on T98G-F cells in 2D culture (T98G-F cells [2]) | Effect on U-87MG-F cells in 2D culture (U-87MG-F cells [3]) | Inhibition of PD-GB4 cell proliferation in fibrin 3D-bio-ink (PD-GB4 cells [4]) | Inhibition of T98G fast-growing cells in fibrin 3D-bio-ink (T98G-F cells [5]) | Inhibition of U-87MG fast-growing cells in fibrin 3D-bio-ink (U-87MG-F cells [6]) | IC50 (P-selectin (SELP)) [µM] | IC50 (patient-derived GB cells) [µM]
1 | COc1ccc(C2CC(c3c(O)cc(C)oc3=O)=NCCS2)c(OC)c1 (centres unmarked) [SELPi, KF38789] | did not affect | did not affect | did not affect | significant inhibition | significant inhibition | significant inhibition | 2 | –
2 | Cn1nnc2c(C(N)=O)ncn2c1=O [TMZ, Temozolomide] | – | – | – | – | – | – | – | ~0.004
